Test results from patent US20250222120A1, “SYNTHESIS OF NOVEL SMALL MOLECULE CARM1 DEGRADERS, COMPOUNDS FORMED THEREBY, AND PHARMACEUTICAL COMPOSITIONS CONTAINING THEM” (Wisconsin Alumni Research Foundation, priority 2024, published 2025).

Assays:
MCF7 cells = test: Global quantitative proteomic analysis of MCF7 cells by mass spectrometry; assay type: cell-based, Homo sapiens; conditions: 25 nM, 4 h, two-fold cutoff, p-value ≤0.05, 3491 proteins quantified
Experimental: Sample preparation for global proteomics analysis. Sample preparation is similar to the previous report (Ma et al. “Strategy Based on Deglycosylation, Multiprotease, and Hydrophilic Interaction Chromatography for Large-Scale Profiling of Protein Methylation” Anal. Chem. 2017, 89 (23), 12909-12917). Briefly, treated MCF7 cells were harvested by washing with PBS buffer (Gibco, pH 7.4) and lysed in RIPA buffer supplemented with protease inhibitors for 20 min, then protein concentration was determined using a BCA Protein Assay Kit (Thermo Pierce, Rockford, IL) per manufacturer instructions. […] The concentrations of the peptide mixture were measured by peptide assay (Thermo Fisher Scientific). […]
LC-MS/MS data acquisition. Samples were analyzed on an Orbitrap Fusion Lumos Tribrid mass spectrometer (Thermo Fisher Scientific) coupled to a Dionex UltiMate 3000 UPLC system. […]
Data analysis. Protein identification and quantification by MaxQuant (version 1.5.3.8) based database searching, using the integrated Andromeda search engine with FDR <1% at peptide and protein levels. […] For label-free protein quantification (LFQ), the MaxQuant LFQ algorithm was used to quantitate the MS signals, and the proteins' intensities were represented in LFQintesnit (Schaab et al. “Analysis of High Accuracy, Quantitative Proteomics Data in the MaxQB Database” Mol. Cell. Proteomics 2012, 11 (3), M111.014068). […]

MDA-MB-231 cells = test: Cell proliferation assay, MDA-MB-231 cells; assay type: cell-based; conditions: 0.5 μM, 7 days
Experimental: Cell Proliferation Assay. Cell proliferation was measured by direct cell count via high contrast brightfield microscopy. MDA-MB-231 cells (3×10^3/well) were seeded in 100 μL of DMEM into the wells of a 96-well plate. Cells were treated with either DMSO, TP-064, or 3b and refreshed every two days. The plate was imaged daily for 7 days using the High-Contrast Brightfield Kit for Label-Free Cell Counting (BioTek) on the BioTek Imager.

Question: How did the “Number of significantly changed proteins compared to the DMSO group” value (MCF7 cells) turn out when `CNCCN1CCC(c2cc(CN(C)C(=O)c3cccc(Oc4ccc(OCC(=O)N5CCC(CN6CCC(CN7CCN(CC(=O)N[C@H](C(=O)N8C[C@H](O)C[C@H]8C(=O)N[C@@H](C)c8ccc(-c9scnc9C)cc8)C(C)(C)C)CC7)CC6)CC5)cc4)c3)ccn2)CC1` [Compound 3b, (2S,4R)-1-((S)-3,3-dimethyl-2-(2-(4-((1-((1-(2-(4-(3-(methyl((2-(1-(2-(methylamino)ethyl)piperidin-4-yl)pyridin-4-yl)methyl)carbamoyl)phenoxy)phenoxy)acetyl)piperidin-4-yl)methyl)piperidin-4-yl)methyl)piperazin-1-yl)acetamido)butanoyl)-4-hydroxy-N—((S)-1-(4-(4-methylthiazol-5-yl)phenyl)ethyl)pyrrolidine-2-carboxamide] was run?
Answer: 25

Question: What about the Cell proliferation (MDA-MB-231 cells) of the same compound?
Answer: not to inhibit cell proliferation
